Reference: PubChem BioAssay AID248 (DTP/NCI, 2004)
Inconclusive results and toxic doses are left out. Rule as the data show it: active = T/C of 150% or more; inactive = T/C below 125%.

System: L1210 leukemia ip in BDF1 mice, survival T/C
Test: NCI In Vivo Anticancer Drug Screen. Data for tumor model L1210 Leukemia (intraperitoneal) in B6D2F1 (BDF1) mice
Settings: endpoint: mean survival time, higher = longer survival
Procedure, shortened: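 Mice bearing the transplanted tumor received compound or vehicle. Survival of the treated group was divided by that of the vehicle-treated control group to give the ratio.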

Measured: T/C

CC(C)[C@](O)(C(=O)OCC1=CC[N+]2([O-])CC[C@@H](O)[C@@H]12)[C@H](C)O (stereo partly specified)
inactive: dose: 6.2 mg/kg/injection, schedule: Q01DX009 (ip), vehicle: water 96 % of control | dose: 8.0 mg/kg/injection, schedule: Q03HX024 (ip), vehicle: water 91 % of control | dose: 12.5 mg/kg/injection, schedule: Q01DX009 (ip), vehicle: water 96 % of control | dose: 16.0 mg/kg/injection, schedule: Q03HX008 (ip), vehicle: water 101 % of control | dose: 16.0 mg/kg/injection, schedule: Q03HX016 (ip), vehicle: water 101 % of control | dose: 16.0 mg/kg/injection, schedule: Q03HX024 (ip), vehicle: water 96 % of control | dose: 25.0 mg/kg/injection, schedule: Q01DX009 (ip), vehicle: saline 90 % of control | dose: 25.0 mg/kg/injection, schedule: Q01DX009 (ip), vehicle: water 98 % of control | dose: 32.0 mg/kg/injection, schedule: Q03HX008 (ip), vehicle: water 99 % of control | dose: 32.0 mg/kg/injection, schedule: Q03HX016 (ip), vehicle: water 94 % of control | dose: 32.0 mg/kg/injection, schedule: Q03HX024 (ip), vehicle: water 95 % of control | dose: 50.0 mg/kg/injection, schedule: Q01DX009 (ip), vehicle: saline 93 % of control | dose: 50.0 mg/kg/injection, schedule: Q01DX009 (ip), vehicle: water 123 % of control | dose: 64.0 mg/kg/injection, schedule: Q01DX009 (ip), vehicle: saline 99 % of control | dose: 64.0 mg/kg/injection, schedule: Q01DX009 (ip), vehicle: water 97 % of control | dose: 64.0 mg/kg/injection, schedule: Q03HX008 (ip), vehicle: water 97 % of control | dose: 64.0 mg/kg/injection, schedule: Q03HX016 (ip), vehicle: water 94 % of control | dose: 64.0 mg/kg/injection, schedule: Q03HX024 (ip), vehicle: water 99 % of control | dose: 64.0 mg/kg/injection, schedule: Q04DX003 (ip), vehicle: water 97 % of control | dose: 100.0 mg/kg/injection, schedule: Q01DX009 (ip), vehicle: saline 96 % of control | dose: 100.0 mg/kg/injection, schedule: Q01DX009 (ip), vehicle: water 110 % of control | dose: 100.0 mg/kg/injection, schedule: Q04DX002 (ip), vehicle: saline 104 % of control | dose: 128.0 mg/kg/injection, schedule: Q01DX001 (ip), vehicle: water 98 % of control | dose: 128.0 mg/kg/injection, schedule: Q01DX009 (ip), vehicle: saline 103 % of control | dose: 128.0 mg/kg/injection, schedule: Q01DX009 (ip), vehicle: water 108 % of control | dose: 128.0 mg/kg/injection, schedule: Q01DX009 (sc), vehicle: water 95 % of control | dose: 128.0 mg/kg/injection, schedule: Q03HX008 (ip), vehicle: water 101 % of control | dose: 128.0 mg/kg/injection, schedule: Q03HX016 (ip), vehicle: water 99 % of control | dose: 128.0 mg/kg/injection, schedule: Q03HX024 (ip), vehicle: water 110 % of control | dose: 128.0 mg/kg/injection, schedule: Q04DX003 (ip), vehicle: water 105 % of control | dose: 128.0 mg/kg/injection, schedule: Q08DX002 (ip), vehicle: water 95 % of control | dose: 200.0 mg/kg/injection, schedule: Q01DX009 (ip), vehicle: water 117 % of control | dose: 200.0 mg/kg/injection, schedule: Q04DX002 (ip), vehicle: saline 123 % of control | dose: 256.0 mg/kg/injection, schedule: Q01DX001 (ip), vehicle: water 99 % of control | dose: 256.0 mg/kg/injection, schedule: Q01DX009 (ip), vehicle: saline 101 % of control | dose: 256.0 mg/kg/injection, schedule: Q01DX009 (ip), vehicle: water 117 % of control | dose: 256.0 mg/kg/injection, schedule: Q01DX009 (oral), vehicle: water 103 % of control | dose: 256.0 mg/kg/injection, schedule: Q01DX009 (sc), vehicle: water 97 % of control | dose: 256.0 mg/kg/injection, schedule: Q03HX008 (ip), vehicle: water 94 % of control | dose: 256.0 mg/kg/injection, schedule: Q04DX003 (ip), vehicle: water 100 % of control | dose: 256.0 mg/kg/injection, schedule: Q08DX002 (ip), vehicle: water 101 % of control | dose: 400.0 mg/kg/injection, schedule: Q01DX009 (ip), vehicle: saline 98 % of control | dose: 400.0 mg/kg/injection, schedule: Q04DX002 (ip), vehicle: saline 120 % of control | dose: 512.0 mg/kg/injection, schedule: Q01DX001 (ip), vehicle: water 101 % of control | dose: 512.0 mg/kg/injection, schedule: Q01DX009 (ip), vehicle: water 105 % of control | dose: 512.0 mg/kg/injection, schedule: Q01DX009 (oral), vehicle: water 94 % of control | dose: 512.0 mg/kg/injection, schedule: Q01DX009 (sc), vehicle: water 104 % of control | dose: 512.0 mg/kg/injection, schedule: Q04DX003 (ip), vehicle: water 100 % of control | dose: 512.0 mg/kg/injection, schedule: Q08DX002 (ip), vehicle: water 110 % of control | dose: 800.0 mg/kg/injection, schedule: Q01DX009 (ip), vehicle: saline 111 % of control | dose: 1024.0 mg/kg/injection, schedule: Q01DX001 (ip), vehicle: water 111 % of control | dose: 1024.0 mg/kg/injection, schedule: Q01DX009 (ip), vehicle: saline 104 % of control | dose: 1024.0 mg/kg/injection, schedule: Q01DX009 (oral), vehicle: water 108 % of control | dose: 1024.0 mg/kg/injection, schedule: Q04DX003 (ip), vehicle: water 119 % of control | dose: 1024.0 mg/kg/injection, schedule: Q08DX002 (ip), vehicle: water 117 % of control

OCC1OC(n2cc(I)c3cncnc32)C(O)C1O (stereo unspecified)
inactive: dose: 12.5 mg/kg/injection, schedule: Q01DX005 (ip), vehicle: saline 102 % of control | dose: 25.0 mg/kg/injection, schedule: Q01DX005 (ip), vehicle: saline 106 % of control | dose: 50.0 mg/kg/injection, schedule: Q01DX005 (ip), vehicle: saline 106 % of control

C[N+]1(Cc2c[nH]c3ccsc23)CCCCC1
inactive: dose: 3.0 mg/kg/injection, schedule: Q01DX009 (ip), vehicle: saline with Tween-80 99 % of control | dose: 6.0 mg/kg/injection, schedule: Q01DX009 (ip), vehicle: saline with Tween-80 97 % of control | dose: 12.0 mg/kg/injection, schedule: Q01DX009 (ip), vehicle: saline with Tween-80 90 % of control | dose: 12.5 mg/kg/injection, schedule: Q04DX003 (ip), vehicle: saline with Tween-80 101 % of control

COC(=O)c1cc2ccccc2c2ccccc12
inactive: dose: 100.0 mg/kg/injection, schedule: Q01DX009 (ip), vehicle: saline with Tween-80 94 % of control | dose: 200.0 mg/kg/injection, schedule: Q01DX009 (ip), vehicle: saline with Tween-80 91 % of control | dose: 400.0 mg/kg/injection, schedule: Q01DX009 (ip), vehicle: saline with Tween-80 87 % of control

O=c1cc(CCc2ccccc2)cc[nH]1
inactive: dose: 100.0 mg/kg/injection, schedule: Q01DX001 (ip), vehicle: saline 97 % of control | dose: 200.0 mg/kg/injection, schedule: Q01DX001 (ip), vehicle: saline 103 % of control | dose: 400.0 mg/kg/injection, schedule: Q01DX001 (ip), vehicle: saline 111 % of control

CCOC(=O)c1[nH]c(C)c(/C(=N/NC(N)=O)C(=O)OC)c1C
inactive: dose: 100.0 mg/kg/injection, schedule: Q01DX001 (ip), vehicle: Klucel (hydroxypropylcellulose) (HPC) 103 % of control | dose: 200.0 mg/kg/injection, schedule: Q01DX001 (ip), vehicle: Klucel (hydroxypropylcellulose) (HPC) 110 % of control | dose: 400.0 mg/kg/injection, schedule: Q01DX001 (ip), vehicle: Klucel (hydroxypropylcellulose) (HPC) 98 % of control
